According to the supplement of paper PMC12420376:

Key:
KURAMOCHI = experiment: drug sensitivity score (DSS2) on cancer cell count; higher = more sensitive; extreme values may be limits of the assay; conditions: 72 h
Outline: (§1)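 Ovarian cancer cells were cultured either alone or directly mixed 1:1 with lung or skin fibroblasts and plated onto 384-well plates acoustically pre-spotted with 528 approved and investigational compounds at 5 concentrations for 72 h of treatment. After fixation, cells were immunostained for CK8/18 with Hoechst and imaged at 10× across 4 fields to count cancer cells. Responses were fitted with 4-parameter logistic curves, and from these fits a drug sensitivity score was derived in Breeze, with screen quality assessed by Z'.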

OVCAR8 = experiment: as above; conditions: 72 h
Outline: as §1

[1] = co-cultured fibroblast: BJHTERT
[2] = co-cultured fibroblast: none (monoculture)

| SMILES | drug sensitivity score (KURAMOCHI; [1]) [DSS] | drug sensitivity score (KURAMOCHI; co-cultured fibroblast: WI38) [DSS] | drug sensitivity score (KURAMOCHI; [2]) [DSS] | drug sensitivity score (OVCAR8; [1]) [DSS] | drug sensitivity score (OVCAR8; co-cultured fibroblast: WI38) [DSS] | drug sensitivity score (OVCAR8; [2]) [DSS] |
| --- | --- | --- | --- | --- | --- | --- |
| CS(=O)(=O)c1ccc(-c2cnc(N)c(C(=O)Nc3ccccc3)n2)cc1 [VE-821] | 0 | 0 | 0 | 3.1 | 0 | 0 |
| C[C@]1(O)C[C@@H](c2nc(-c3ccc4ccc(-c5ccccc5)nc4c3)c3c(N)nccn32)C1 [Linsitinib] | 0 | 0 | 0 | 0 | 0 | 1.7 |
| N#CC[C@H](C1CCCC1)n1cc(-c2ncnc3[nH]ccc23)cn1 [Ruxolitinib] | 0 | 0 | 0 | 1.3 | 2.7 | 2.5 |
| C=CC[C@@H]1/C=C(\C)C[C@H](C)C[C@H](OC)[C@H]2O[C@@](O)(C(=O)C(=O)N3CCCC[C@H]3C(=O)O[C@H](/C(C)=C/[C@@H]3CC[C@@H](O)[C@H](OC)C3)[C@H](C)[C@@H](O)CC1=O)[C@H](C)C[C@@H]2OC [Tacrolimus] | 1 | 1 | 18.5 | 0.8 | 0 | 3.1 |
| CN(C)c1cc2c(cc1Sc1nc3c(N)nccc3n1CCNCC(C)(C)C)OCO2 [CUDC-305] | 12 | 14.9 | 18.4 | 16.5 | 16.7 | 23.2 |
| CN[C@@H](C)C(=O)N[C@H](C(=O)N1CCC[C@H]1c1nc(C(=O)c2ccc(F)cc2)cs1)C1CCCCC1 [NVP-LCL161] | 4 | 1.9 | 2.5 | 34.7 | 27.7 | 23.2 |
| CCN(CC)CCOc1ccc(C(=C(Cl)c2ccccc2)c2ccccc2)cc1 [Clomifene] | 3.7 | 5.6 | 7.9 | 4.3 | 10.1 | 1.9 |
| Cn1cc(-c2ccc(F)c(C(F)(F)F)c2)nc1C1CCN(c2ncnc3[nH]ncc23)CC1 | 1 | 0 | 0 | 0 | 0 | 0.6 |
| O=C(/C=C\n1cnc(-c2cc(C(F)(F)F)cc(C(F)(F)F)c2)n1)NNc1ccccn1 [Verdinexor] | 8.4 | 9.1 | 16.7 | 10.2 | 7.1 | 16.6 |
| CC(C)(C)c1cnc(CSc2cnc(NC(=O)C3CCNCC3)s2)o1 [SNS-032] | 21.1 | 18.1 | 25.5 | 28.3 | 21 | 24.3 |
| O=C(c1cccc(Cl)c1F)N1CCN(Cc2cccc(Nc3nccs3)n2)CC1 [MK-8745] | 11.8 | 14.3 | 13.4 | 12.5 | 14.3 | 13.9 |
| CONC(=O)c1ccccc1Nc1cc(Nc2cc(C)nn2C(C)C)ncc1Cl | 3.3 | 0 | 0.2 | 0.8 | 4.2 | 0 |
| O=C(NC[C@H](O)CN1CCc2ccccc2C1)c1cc(NC2COC2)ncn1 | 0.1 | 0 | 0 | 0 | 0 | 0 |
| CS(=O)(=O)c1ccc(C(=O)Nc2ccc(Cl)c(-c3ccccn3)c2)c(Cl)c1 [Vismodegib] | 0 | 0 | 0 | 0 | 6.8 | 0 |
| CNC(=O)c1cc(Oc2ccc(NC(=O)Nc3ccc(Cl)c(C(F)(F)F)c3)cc2)ccn1 [Sorafenib] | 0 | 0 | 0 | 0 | 0 | 0 |
| CNC(=O)c1ccc(C)c(-n2c(C)cc(OCc3ccc(F)cc3F)c(Br)c2=O)c1 | 0.6 | 0 | 14.9 | 0.9 | 0 | 0 |
| COc1cc(C(=O)O)ccc1NC(=O)[C@@H]1N[C@@H](CC(C)(C)C)[C@](C#N)(c2ccc(Cl)cc2F)[C@H]1c1cccc(Cl)c1F [Idasanutlin] | 0 | 1.1 | 0 | 1.3 | 4.2 | 0 |
| O=C1CCc2c(Oc3ccc4c(c3)[C@@H]3[C@H](O4)[C@H]3c3nc4cc(C(F)(F)F)ccc4[nH]3)ccnc2N1 [BGB-283] | 6.9 | 5.3 | 4.7 | 3.7 | 13.4 | 5.2 |
| CCOc1ccccc1-n1c(C(C)N2CCN(C(=O)COc3ccc(Cl)cc3)CC2)nc2ccccc2c1=O (centres undefined) [Erastin] | 3.6 | 3.9 | 2.6 | 17.9 | 18.6 | 7.4 |
| CCCCCCCCCCCCCCCCCCOP(=O)([O-])OC1CC[N+](C)(C)CC1 [Perifosine] | 0 | 0 | 0 | 0 | 0 | 0 |
| Cc1cc2c(C(=O)NC[C@H](C)c3ccccc3)c(O)c(O)cc2c(O)c1-c1c(C)cc2c(C(=O)NC[C@H](C)c3ccccc3)c(O)c(O)cc2c1O [Sabutoclax] | 3 | 4.3 | 23.7 | 16.2 | 14.2 | 26.7 |
| COc1cc(N2CCN(C)CC2)ccc1Nc1nccc(-c2cn(C)c3cnccc23)n1 [AZ191] | 5.9 | 2.3 | 6.9 | 3.3 | 2 | 1.3 |
| CC[C@]1(O)C[C@H]2CN(CCc3c([nH]c4ccccc34)[C@@](C(=O)OC)(c3cc4c(cc3OC)N(C=O)[C@H]3[C@@](O)(C(=O)OC)[C@H](OC(C)=O)[C@]5(CC)C=CCN6CC[C@]43[C@@H]65)C2)C1 [Vincristine] | 7.5 | 5 | 23.4 | 11.5 | 9.3 | 11.9 |
| CO[C@@H]1[C@H](N(C)C(=O)c2ccccc2)C[C@H]2O[C@]1(C)n1c3ccccc3c3c4c(c5c6ccccc6n2c5c31)C(=O)NC4 [Midostaurin] | 16.2 | 14.8 | 11.6 | 13.3 | 16.5 | 13 |
| CN1CCN(c2ccc3nc(-c4c(N)c5c(F)cccc5[nH]c4=O)[nH]c3c2)CC1 [Dovitinib] | 0 | 0 | 0 | 0.5 | 0 | 0.3 |

| SMILES | drug sensitivity score (KURAMOCHI; [1]) [DSS] | drug sensitivity score (KURAMOCHI; co-cultured fibroblast: WI38) [DSS] | drug sensitivity score (KURAMOCHI; [2]) [DSS] | drug sensitivity score (OVCAR8; [1]) [DSS] | drug sensitivity score (OVCAR8; co-cultured fibroblast: WI38) [DSS] | drug sensitivity score (OVCAR8; [2]) [DSS] |
| --- | --- | --- | --- | --- | --- | --- |
| CNC(=O)c1ccc2cc([C@@]3(O)CCn4cncc43)ccc2c1 [Orteronel] | 0 | 0 | 0.5 | 0 | 0.3 | 0 |
| C[C@H]1O[C@@H](O[C@H]2[C@@H](O)C[C@H](O[C@H]3[C@@H](O)C[C@H](O[C@H]4CC[C@@]5(C)[C@H](CC[C@@H]6[C@@H]5C[C@@H](O)[C@]5(C)[C@@H](C7=CC(=O)OC7)CC[C@]65O)C4)O[C@@H]3C)O[C@@H]2C)C[C@H](O)[C@@H]1O [Digoxin] | 8.6 | 10.9 | 14.2 | 14.9 | 11.6 | 12.7 |
| CCn1cc(-c2ccnc3[nH]c(-c4cccc(CN(C)C)c4)cc23)c(-c2ccc(NC(=O)N(C)C)cc2)n1 | 13.7 | 15.5 | 14.2 | 12.3 | 4.4 | 10 |
| CN1CC[C@H](c2c(O)cc(O)c3c(=O)cc(-c4ccccc4Cl)oc23)[C@H](O)C1 [Alvocidib] | 19.3 | 20.2 | 20.9 | 20.8 | 21.6 | 21 |
| FC(F)(F)c1ccc(/C=C/c2nc(COc3ccc(CCCCn4ccnn4)cc3)co2)cc1 [Mubritinib] | 5.6 | 0 | 0 | 16.9 | 0 | 5.5 |
| CCc1cncnc1N1CCN(Cc2nc3ccc(C(F)(F)F)cc3[nH]2)CC1 | 1 | 0 | 2.1 | 1.3 | 0 | 2.4 |
| O=C(/C=C/c1cccnc1)NCCCCC1CCN(C(=O)c2ccccc2)CC1 [Daporinad] | 16 | 12.6 | 20.4 | 22.5 | 22.2 | 27.1 |
| COc1cc2c(cc1OCCCN1CCCC1)N=C(N)C21CCC1 [A-366] | 2.1 | 0.5 | 0 | 4.1 | 0 | 0.3 |
| CC(C)C[C@H](NC(=O)[C@@H](COC(C)(C)C)NC(=O)[C@H](Cc1ccc(O)cc1)NC(=O)[C@H](CO)NC(=O)[C@H](Cc1c[nH]c2ccccc12)NC(=O)[C@H](Cc1cnc[nH]1)NC(=O)[C@@H]1CCC(=O)N1)C(=O)N[C@@H](CCCNC(=N)N)C(=O)N1CCC[C@H]1C(=O)NNC(N)=O [Goserelin] | 0 | 0 | 0 | 0 | 0 | 0 |
| NC1(c2ccc(-c3nc4ccn5c(=O)[nH]nc5c4cc3-c3ccccc3)cc2)CCC1 [MK-2206] | 5.8 | 1.4 | 16.1 | 0.2 | 0 | 0.3 |
| CC(C)(O)CC(=O)NCCn1ccc2ncnc(Nc3ccc(Oc4cccc(C(F)(F)F)c4)c(Cl)c3)c21 [TAK-285] | 5.2 | 1.6 | 0.6 | 0.2 | 0 | 1.2 |
| COc1cccc2c1C(=O)c1c(O)c3c(c(O)c1C2=O)C[C@@](O)(/C(CO)=N/NC(=O)CCCCCN1C(=O)C=CC1=O)C[C@@H]3O[C@H]1C[C@H](N)[C@H](O)[C@H](C)O1 [Aldoxorubicin] | 13.3 | 13.8 | 19.1 | 12.9 | 11.7 | 13.1 |
| COc1cc(CCc2cc(NC(=O)c3ccc(N4CC(C)NC(C)C4)cc3)n[nH]2)cc(OC)c1 (centres undefined) [AZD4547] | 0 | 0 | 0 | 0 | 0 | 0 |
| COc1cc2ncnc(Nc3cccc(Cl)c3F)c2cc1OC(=O)N1CCN(C)C[C@H]1C [AZD3759] | 1.1 | 0 | 0 | 0.8 | 3.6 | 0 |
| C[C@H]1CNCCCN1S(=O)(=O)c1cccc2cncc(F)c12 [Ripasudil] | 1.8 | 0 | 0.4 | 3 | 6.9 | 0.2 |
| COc1ccc(C[C@H](NC(=O)[C@H](C)NC(=O)CN2CCOCC2)C(=O)N[C@@H](Cc2ccccc2)C(=O)C2(C)CO2)cc1 (stereo in doubt) [ONX-0914] | 15.7 | 17.7 | 17.6 | 8.4 | 16.1 | 17.8 |
| Nc1nc(NC2CC2)cc(-c2cccc(Cl)c2Cl)n1 [TH588] | 6 | 6.7 | 6.5 | 7.4 | 4.5 | 3.3 |
| Cc1cc(C(C)Nc2ccccc2)c2nc(N3CCOCC3)cc(=O)n2c1 (centres undefined) [TGX-221] | 7.7 | 0 | 4 | 8.5 | 7.2 | 0 |
| CC(=O)OC[C@H]1O[C@@H]([S-])[C@H](OC(C)=O)[C@@H](OC(C)=O)[C@@H]1OC(C)=O.CCP(CC)CC.[Au+] [Auranofin] | 9.3 | 7 | 8.1 | 12.1 | 8.8 | 7.3 |
| CCNCCS(=O)(=O)NC[C@@]1(c2ccccc2)SC(NC(=O)C(C)(C)C)=NN1C(=O)C(C)(C)C [Litronesib] | 19.2 | 22.8 | 12.2 | 27.8 | 28.8 | 27 |
| CCCCc1nc2cc(/C=C/C(=O)NO)ccc2n1CCN(CC)CC [Pracinostat] | 15.7 | 20.4 | 19.8 | 23.1 | 20.4 | 25.5 |
| CC1(C)CC[C@]2(NC(=O)C(C)(F)F)CC[C@]3(C)[C@H](C(=O)C=C4[C@@]5(C)C=C(C#N)C(=O)C(C)(C)[C@@H]5CC[C@]43C)[C@@H]2C1 [Omaveloxolone] | 17.2 | 17.8 | 20.1 | 7 | 20 | 21.5 |
| C[C@]12C=CC(=O)C=C1CC[C@@H]1[C@@H]2[C@@H](O)C[C@@]2(C)[C@H]1CC[C@]2(O)C(=O)CO [Prednisolone] | 0 | 0 | 0 | 0.3 | 0 | 0 |
| Nc1nc(F)nc2c1ncn2[C@@H]1O[C@H](CO)[C@@H](O)[C@@H]1O [Fludarabine] | 0.3 | 4.5 | 0 | 8 | 8.5 | 13.4 |
